We go through one compound from publication PMC6773951 (Scientific Reports, 2019).

The experiment deals with T1, hPIRT (human PIRT, phosphoinositide interacting regulator of TRPs) (Homo sapiens, UniProt P0C851).
T1 construct: full-length, recombinant from E. coli, reconstituted in DPC micelles; two TM helices, C-terminal amphipathic helix Asp125-Arg137; maleimide dye labelled for MST
The experiment in a line: microscale thermophoresis. It counts as binding. The note with it: DPC micelles (0.1% DPC), 50 mM HEPES pH 7.5, 25 °C; fluorophore-labelled hPIRT 400 nM; no TRPM8-S1S4; diC8 chain stated for the NMR titration, MST lipid called PIP2 only.

T1 sequence (P0C851 whole entry): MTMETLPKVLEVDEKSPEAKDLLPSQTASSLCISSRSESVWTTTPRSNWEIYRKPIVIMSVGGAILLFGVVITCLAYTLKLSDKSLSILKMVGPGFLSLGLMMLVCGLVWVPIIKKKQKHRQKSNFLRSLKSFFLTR

`CCCCCCCC(=O)OC[C@H](COP(=O)(O)O[C@@H]1[C@H](O)[C@H](O)[C@@H](OP(=O)(O)O)[C@H](OP(=O)(O)O)[C@H]1O)OC(=O)CCCCCCC` [PIP2, 1,2-dioctanoyl-sn-glycero-3-phospho-(1′-myo-inositol-4′,5′-bisphosphate)] had a Kd of 0.18 ± 0.06 mole%.
